Measurements taken from PMC9913425, “Pentacyclic Triterpenoids-Based Ionic Compounds: Synthesis, Study of Structure–Antitumor Activity Relationship, Effects on Mitochondria and Activation of Signaling Pathways of Proliferation, Genome Reparation and Early Apoptosis” (Cancers, 2023).

Tests used:
HEK293 = assay: In vitro cytotoxicity, IC50 by flow cytometry (Guava ViaCount); type: cell-based; conditions: conditionally normal
Description: (§1) Human cancer cell line HeLa, HL60, A2780 was obtained from the HPA Culture Collections (Salisbury, UK). Cells (Jurkat, K562, U937, Hek293, Fibroblasts) were purchased from Russian Cell Culture Collection (Institute of Cytology of the Russian Academy of Sciences, […], Russia) and cultured according to standard protocols and sterile technique. […] Cells were maintained in RPMI 1640 (Jurkat, K562, U937, HL60) (Gibco, Billings, MT, USA) supplemented with […], 10% FBS (Sigma) and 100 units/mL penicillin–streptomycin (Sigma). All types of cells were grown in an atmosphere of 5% CO2 at 37 °C. The cells were subcultured at 2–3 days intervals. Cells were then seeded in 24-well plates at 5 × 10^4 cells per well and incubated overnight. Jurkat, K562, U937, HL60 cells were subcultured at 2-day intervals with a seeding density of 1 × 10^5 cells per 24-well plates in RPMI with 10% FBS.
(§2) The antitumor activity of the synthesized ionic compounds was initially assessed in vitro on Jurkat, K562, U937, HL60, HEK293, A2780 cell lines, including the determination of IC50 by flow cytometry involving Guava ViaCount (Millipore) reagent kits.

Jurkat = assay: as above; type: cell-based; conditions: Jurkat cells
Description: as §1, §2

K562 = assay: as above; type: cell-based
Description: as §1, §2

U937 = assay: as above; type: cell-based
Description: as §1, §2

A2780 = assay: as above; type: cell-based, human
Description: as §1, §2

HL60 = assay: as above; type: cell-based, human
Description: as §1, §2

Jurkat cells = assay: Apoptosis/necrosis induction (Annexin V Alexa Fluor488, 7AAD staining); type: cell-based; conditions: compound at IC50 concentration, incubation 2 h
Source text: Multiparametric evaluation of marker molecules, along with the detection of damage to the mitochondrial membrane, makes it possible to clearly determine the type of cell death. The method of cell staining with three different dyes (Annexin V Alexa Fluor488, 7AAD and MitoSense Red) provides simultaneous specification of various aspects of the state of the cell membrane, the state of DNA and the viability of mitochondria; together, it is a reliable sign of intrinsic and mitochondrial apoptosis pathway. Normal cells with intact mitochondrial membranes have high MitoSense Red fluorescence, while cells with decoupled oxidation and phosphorylation have much lower fluorescence. […]
Figure 1 The ratio of the level of mito-damage and the level of apoptosis in Jurkat cells of ionic compounds based on ursolic, oleanolic and betulinic acids.

[1] = test system: mitochondria of Jurkat tumor cells; assay: Mitochondrial damage (MitoSense Red staining); type: cell-based; conditions: compound at IC50 concentration, incubation 2 h
[2] = Homo sapiens, HEK293, HEK293 cells
[3] = Homo sapiens, U-937, U937 cells
[4] = Homo sapiens, A2780, A2780 cells
[5] = Homo sapiens, HL-60, HL60 cells

| SMILES | IC50 (HEK293; [2]) [nM] | IC50 (Jurkat; Homo sapiens, Jurkat) [nM] | IC50 (K562; Homo sapiens, K562, K562 cells) [nM] | IC50 (U937; [3]) [nM] | IC50 (A2780; [4]) [nM] | IC50 (HL60; [5]) [nM] | Apoptosis (%) Early (Jurkat cells) [%] | Apoptosis (%) Late (Jurkat cells) [%] | Apoptosis (%) Necrosis (Jurkat cells) [%] | Mito-Damage (%) [1] [%] | percentage of cells in the apoptotic state (Jurkat cells) [%] | IC50 (HEK293; HEK293 cells) [nM] | IC50 (Jurkat) [nM] | IC50 (K562; K562 cells) [nM] | IC50 (U937; U937 cells) [nM] | IC50 (A2780; A2780 cells) [nM] | IC50 (HL60; HL60 cells) [nM] |
| --- | --- | --- | --- | --- | --- | --- | --- | --- | --- | --- | --- | --- | --- | --- | --- | --- | --- |
| C[C@@H]1CC[C@]2(C(=O)OCCn3cc[n+](C)c3)CC[C@]3(C)C(=CCC4[C@@]5(C)CC[C@H](O)C(C)(C)C5CC[C@]43C)C2[C@H]1C (stereo partly drawn) [10a, 1-(2-{[(3β)-3-Hydroxyurs-12-en-28-oyl]oxy}ethyl)-3-methylimidazolium bromide] | 91 ± 9 | 17 ± 1 | 31 ± 2 | 27 ± 2 | 59 ± 5 | 8 ± 1 | 10.43 | 5.01 | 0.71 | 11.01 | – | – | – | – | – | – | – |
| C[C@@H]1CC[C@]2(C(=O)OCCCCCCn3cc[n+](C)c3)CC[C@]3(C)C(=CCC4[C@@]5(C)CC[C@H](O)C(C)(C)C5CC[C@]43C)C2[C@H]1C (stereo partly shown) [10c] | 24 ± 2 | 3 ± 1 | 7 ± 1 | 6 ± 1 | 11 ± 1 | 2 ± 1 | 6.61 | 4.08 | 0.61 | 8.89 | – | – | – | – | – | – | – |
| C=C(C)[C@@H]1CC[C@]2(C(=O)OCCn3cc[n+](C)c3)CC[C@]3(C)C(CCC4[C@@]5(C)CC[C@H](O)C(C)(C)C5CC[C@]43C)C12 (stereo partly drawn) [11a, 1-(2-{[(3β)-3-Hydroxylup-20(29)-en-28-oyl]oxy}ethyl)-3-methylimidazolium bromide] | 237 ± 21 | 25 ± 1 | 76 ± 4 | 69 ± 3 | 132 ± 12 | 22 ± 2 | 6.58 | 0.74 | 0.56 | 5.26 | – | – | – | – | – | – | – |
| C=C(C)[C@@H]1CC[C@]2(C(=O)OCCCCCCn3cc[n+](C)c3)CC[C@]3(C)C(CCC4[C@@]5(C)CC[C@H](O)C(C)(C)C5CC[C@]43C)C12 (stereo partly shown) [11c] | 54 ± 5 | 39 ± 4 | 21 ± 1 | 19 ± 1 | 36 ± 3 | 6 ± 1 | 15.59 | 1.82 | 4.37 | 25.72 | – | – | – | – | – | – | – |
| CC1(C)CC[C@]2(C(=O)OCCCCCC[N+]3(C)CCCCC3)CC[C@]3(C)C(=CCC4[C@@]5(C)CC[C@H](O)C(C)(C)C5CC[C@]43C)C2C1 (stereo partly drawn) [12b, 1-(6-{[(3β)-3-Hydroxyolean-12-en-28-oyl]oxy}hexyl)-1-methylpiperidinium bromide] | 76 ± 7 | 9 ± 1 | 21 ± 1 | 19 ± 1 | 34 ± 3 | 24 ± 2 | 3.21 | 18.13 | 1.9 | 23.49 | – | – | – | – | – | – | – |
| CC1(C)CC[C@]2(C(=O)OCCCCCC[N+]3(C)CCCC3)CC[C@]3(C)C(=CCC4[C@@]5(C)CC[C@H](O)C(C)(C)C5CC[C@]43C)C2C1 (stereo partly drawn) [12c, 1-(6-{[(3β)-3-Hydroxyolean-12-en-28-oyl]oxy}hexyl)-1-methylpyrrolidinium bromide] | 81 ± 8 | 11 ± 1 | 24 ± 1 | 21 ± 1 | 39 ± 4 | 27 ± 2 | 0.7 | 33.66 | 0.99 | 74.26 | 35 | – | – | – | – | – | – |
| CC1(C)CC[C@]2(C(=O)OCCCCCC[N+]3(C)CCOCC3)CC[C@]3(C)C(=CCC4[C@@]5(C)CC[C@H](O)C(C)(C)C5CC[C@]43C)C2C1 (stereo partly drawn) [12d, 4-(6-{[(3β)-3-Hydroxyolean-12-en-28-oyl]oxy}hexyl)-4-methylmorpholinium bromide] | 86 ± 8 | 22 ± 2 | 69 ± 3 | 59 ± 3 | 41 ± 4 | 17 ± 1 | 0.0 | 36.14 | 22.63 | 62.11 | – | – | – | – | – | – | – |
| CC[N+](CC)(CC)CCCCCCOC(=O)[C@]12CCC(C)(C)CC1C1=CCC3[C@@]4(C)CC[C@H](O)C(C)(C)C4CC[C@@]3(C)[C@]1(C)CC2 (stereo partly drawn) [12e, N,N,N-Triethyl-N-(6-{[(3β)-3-hydroxyolean-12-en-28-oyl]oxy}hexyl)-aminium bromide] | 34 ± 3 | 7 ± 1 | 13 ± 1 | 10 ± 1 | 16 ± 2 | 3 ± 1 | 0.76 | 76.0 | 7.19 | 97.3 | – | – | – | – | – | – | – |
| CC1(C)CC[C@]2(C(=O)OCCCCCC[N+](C)(C)CCO)CC[C@]3(C)C(=CCC4[C@@]5(C)CC[C@H](O)C(C)(C)C5CC[C@]43C)C2C1 (stereo partly drawn) [12f, N-(2-Hydroxyethyl)-N-(6-{[(3β)-3-hydroxyolean-12-en-28-oyl]oxy}hexyl)-N,N-dimethylaminium bromide] | 26 ± 2 | 17 ± 1 | 49 ± 2 | 42 ± 2 | 15 ± 1 | 11 ± 1 | 0.0 | 30.87 | 54.23 | 86.98 | 85.10 | – | – | – | – | – | – |
| Cn1cc[n+](CCCCCCOC(=O)C23CCC(C)(C)CC2C2=CCC4C5(C)CCC(O)C(C)(C)C5CCC4(C)C2(C)CC3)c1.[F][Sb-]([F])([F])([F])([F])[F] (stereo not drawn) [13b, 1-(6-{[(3β)-3-Hydroxyolean-12-en-28-oyl]oxy}hexyl)-3-methylimidazolium Hexafluoroantimonate] | – | – | – | – | – | – | 2.35 | 17.49 | 4.68 | 35.72 | – | 39 ± 3 | 9 ± 1 | 12 ± 1 | 10 ± 1 | 21 ± 2 | 3 ± 1 |
| Cn1cc[n+](CCCCCCOC(=O)[C@]23CCC(C)(C)C[C@H]2C2=CC[C@@H]4[C@@]5(C)CC[C@H](O)C(C)(C)[C@@H]5CC[C@@]4(C)[C@]2(C)CC3)c1.F[P-](F)(F)(F)(F)F [13c, 1-(6-{[(3β)-3-Hydroxyolean-12-en-28-oyl]oxy}hexyl)-3-methylimidazolium Hexafluorophosphate] | – | – | – | – | – | – | 3.62 | 5.20 | 1.78 | 8.32 | – | 32 ± 3 | 8 ± 1 | 7 ± 1 | 5 ± 1 | 14 ± 1 | 3 ± 1 |
